Test [1] has as its target T1, estrogen receptor preparations of rat uteri (rat uterus cytosol; ERα predominates) (Rattus norvegicus, UniProt P06211).
T1 construct: The preparation of rat uterus cytosol, and the receptor test with the ER containing cytosol; from tissue; host or cells: rat uterus cytosol
T1 sequence (P06211 1-600): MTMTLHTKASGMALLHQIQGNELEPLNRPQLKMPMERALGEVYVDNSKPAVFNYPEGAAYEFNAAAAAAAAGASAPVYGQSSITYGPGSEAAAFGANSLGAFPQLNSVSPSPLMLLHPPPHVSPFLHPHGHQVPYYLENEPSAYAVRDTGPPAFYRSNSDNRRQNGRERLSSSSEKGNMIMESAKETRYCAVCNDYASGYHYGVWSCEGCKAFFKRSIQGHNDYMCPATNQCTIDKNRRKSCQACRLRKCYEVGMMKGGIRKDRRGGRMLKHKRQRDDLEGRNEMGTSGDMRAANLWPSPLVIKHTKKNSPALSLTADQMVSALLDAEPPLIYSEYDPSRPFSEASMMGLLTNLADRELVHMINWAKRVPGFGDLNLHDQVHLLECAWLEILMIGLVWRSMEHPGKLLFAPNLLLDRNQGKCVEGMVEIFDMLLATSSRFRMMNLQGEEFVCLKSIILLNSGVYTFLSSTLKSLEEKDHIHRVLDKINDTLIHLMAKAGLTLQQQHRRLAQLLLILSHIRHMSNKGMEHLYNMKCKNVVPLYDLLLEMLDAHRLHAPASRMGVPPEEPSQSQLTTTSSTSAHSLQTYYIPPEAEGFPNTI
The test can be described thus: Estrogen receptor binding, rat uterus cytosol (competition with 3H-estradiol). To be noted: relative binding affinity, RBA of reference substance estradiol = 100. The procedure:
(§1) This patent application describes novel structures for selective estrogens, which have in vitro dissociation with respect to binding to estrogen receptor preparations of the rat uterus and rat prostate. In this case, it is assumed that ERα predominates in the rat uteri over ERβ, while ERβ predominates in the rat prostates over ERα.
(§2) The binding affinity of the new selective estrogens was tested in competitive tests with use of 3H-estradiol as a ligand in estrogen receptor preparations of rat prostates and rat uteri. The preparation of the prostate cytosol and the estrogen receptor test was performed with the prostate cytosol, as described by Testas et al. (1981) (Testsas, J. et al., 1981, Endocrinology 109:1287-1289).
The preparation of rat uterus cytosol, and the receptor test with the ER containing cytosol were performed basically as by Stack and Gorski, 1985 (Stack, Gorski 1985, Endocrinology 117, 2024-2032) with some modifications as described in Fuhrmann et al. (1995) (Fuhrmann U. et al. 1995, Contraception 51:45-52).

Test [2] relates to ovariectomized rats. The test can be described thus: Uterus growth test on ovariectomized rats (3-day treatment). Also noted: unit not given beside the values. Conditions: subcutaneously daily over 3 days. It is filed as in vivo, rat. The procedure: An in-depth description of the experiment was published (K. H., Fritzemeir, Ch. Hegele-Hartung (1999), Handbook of Pharmacol., Oettel, Schillinger eds., 135/II, 21:1-94). Ovariectomized rats were treated 10 days after ovariectomy with various dosages of the test substance or reference substance. The treatment was carried out subcutaneously daily over 3 days. On day 4, the animals were sacrificed, and the uterus moist and dry weights were determined.

In test [3] the test system is estrogen receptor preparations of rat prostates (rat prostate cytosol; ERβ predominates). Put plainly: Estrogen receptor binding, rat prostate cytosol (competition with 3H-estradiol). Conditions: relative binding affinity, RBA of reference substance estradiol = 100. The protocol: as §1, §2

The source of these data is US6670347B2, “19-nor-17α-pregna-1,3,5(10)-trien-17β-ols with a 21,16α-lactone ring” (Schering AG, priority 2000, dated 2003).

Regarding `C[C@]12CC[C@@H]3c4ccc(O)cc4CC[C@H]3[C@@H]1C[C@H]1OC(=O)C[C@]12O` [3,17β-Dihydroxy-19-nor-17α-pregna-1,3,5(10)-triene-21,16α-lactone], in test [1], the “Rat Uterus Cytosol (RBA*)” value is 12.5. For the same compound, the results for the “Uterus Moist Weight [Mw ± SD]” value in test [2] (dosage 0.1 μg/kg), in test [2] (dosage 1 μg/kg) and in test [2] (dosage 10 μg/kg) were 23.7 ± 2.2, 60.1 ± 7.4 and 95.9 ± 12.4, respectively. Moreover, the “Rat Prostate Cytosol (RBA*)” value in test [3] was below 0.1.
Turning to `C[C@]12CC[C@@H]3c4ccc(O)cc4CC[C@H]3[C@@H]1CC[C@@H]2O` [17β-Estradiol, reference compound], the figures for the “Uterus Moist Weight [Mw ± SD]” value in test [2] (dosage 0.1 μg/kg), in test [2] (dosage 1 μg/kg) and in test [2] (dosage 10 μg/kg) were 28.0 ± 2.0, 71.9 ± 9.6 and 82.3 ± 11.3, respectively.
